Experiments:
Assay type in all cases: in vivo
[1] = tested on: Beet Armyworm (Spodoptera exigua, LAPHEG); test: Bioassay on Beet Armyworm (BAW), 128-well diet tray assay; details: 168 h, 50 μg/cm^2 on artificial diet, second instar larvae, five to seven days, 25° C., read-out: BAW % Control (or Mortality) rating
How it was run: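 Second instar larvae, one to five per well, placed on artificial diet treated with 50 μg/cm^2 compound (in 90:10 acetone-water) and dried; eight wells per compound. Held at 25° C, 14:10 light-dark, five to seven days. Percent mortality recorded per well and averaged.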

[2] = tested on: Green Peach Aphid (Myzus persicae, MYZUPE); test: Bioassay on Green Peach Aphid (GPA), foliar spray on cabbage seedlings; details: 72 h, 200 ppm foliar spray on cabbage seedlings, three days, Abbott corrected % control, read-out: GPA % Control (or Mortality) rating
Experimental: Example B: Bioassays on Green Peach Aphid (Myzus persicae, MYZUPE) (“GPA”)
Certain molecules disclosed in this document were tested against GPA using procedures described in the following example. In the reporting of the results, the “GPA Rating Table” was used (See Table Section).
Cabbage seedlings grown in 3-inch pots, with 2-3 small (3-5 cm) true leaves, were used as test substrate. The seedlings were infested with 20-50 GPA (wingless adult and nymph stages) one day prior to chemical application. Four pots with individual seedlings were used for each treatment. Test molecules (2 mg) were dissolved in 2 mL of acetone/methanol (1:1) solvent, forming stock solutions of 1000 ppm test molecule. The stock solutions were diluted 5× with 0.025% Tween 20 in water to obtain the solution at 200 ppm test molecule. A hand-held aspirator-type sprayer was used for spraying a solution to both sides of […] leaves until runoff. Reference plants (solvent check) were sprayed with the diluent only containing 20% by volume of acetone/methanol (1:1) solvent. Treated plants were held in a holding room for three days at approximately 25° C. and ambient relative humidity (RH) prior to grading. Evaluation was conducted by counting the number of live aphids per plant under a microscope. Percent Control was measured by using Abbott's correction formula (W. S. Abbott, “A Method of Computing the Effectiveness of an Insecticide” J. Econ. Entomol. 18 (1925), pp. 265-267) as follows. Corrected % Control=100*(X−Y)/X • where • X=No. of live aphids on solvent check plants and • Y=No. of live aphids on treated plants
The results are indicated in the table entitled “Table ABC: Biological Results” (See Table Section).

[3] = tested on: Cabbage Looper (Trichoplusia ni, TRIPNI); test: Bioassay on Cabbage Looper (CL), 128-well diet tray assay; details: 168 h, 50 μg/cm^2 on artificial diet, second instar larvae, five to seven days, 25° C., read-out: CL % Control (or Mortality) rating
How it was run: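 Diet-tray test with one to five second-instar larvae per well on artificial diet treated with 50 μg/cm^2 compound (in 90:10 acetone-water), dried, eight wells per molecule. Held 25 °C, 14:10 light-dark for five to seven days; percent mortality averaged over the eight wells.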

[4] = tested on: Yellow Fever Mosquito (Aedes aegypti, AEDSAE); test: Bioassay on Yellow Fever Mosquito (YFM) larvae, 96-well plate; details: about 1 day-old larvae, 4000 ppm DMSO master plate diluted, graded after 3 days
How it was run: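 Compounds from 4000 ppm DMSO master stocks, diluted in 90:10 water:acetone, dispensed into wells and infested with about 1-day-old Aedes aegypti larvae in liver-powder water. Six replicate plates, covered and held at room temperature for 3 days, then each well scored for mortality.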

SMILES | mortality at 50 µg/cm2 [1] [%] | mortality at 200 ppm [2] [%] | mortality at 50 µg/cm2 [3] [%] | YFM % Control (or Mortality) rating [4]
O=C(Nc1ccc(-c2ncn(-c3ccc(OC(F)(F)C(F)(F)F)cc3)n2)cc1)Nc1ccnn1-c1c(Cl)cccc1Cl [F14, 1-(1-(2,6-Dichlorophenyl)-1H-pyrazol-5-yl)-3-(4-(1-(4-(perfluoroethoxy)phenyl)-1H-1,2,4-triazol-3-yl)phenyl)urea] | 50 to 100 | 0 to 80 | 50 to 100 | A (80-100)
Cc1ccc(-n2nccc2NC(=O)Nc2ccc(-c3ncn(-c4ccc(OC(F)(F)C(F)(F)F)cc4)n3)cc2)c(C)c1 [F15, 1-(1-(2,4-Dimethylphenyl)-1H-pyrazol-5-yl)-3-(4-(1-(4-(perfluoroethoxy)phenyl)-1H-1,2,4-triazol-3-yl)phenyl)urea] | 50 to 100 | 0 to 80 | 50 to 100 | A (80-100)
Cc1ccc(F)cc1-n1nccc1NC(=O)Nc1ccc(-c2ncn(-c3ccc(OC(F)(F)C(F)(F)F)cc3)n2)cc1 [F16, 1-(1-(5-Fluoro-2-methylphenyl)-1H-pyrazol-5-yl)-3-(4-(1-(4-(perfluoroethoxy)phenyl)-1H-1,2,4-triazol-3-yl)phenyl)urea] | 50 to 100 | 0 | 50 to 100 | A (80-100)
Cc1ccc(C)c(-n2nccc2NC(=O)Nc2ccc(-c3ncn(-c4ccc(OC(F)(F)C(F)(F)F)cc4)n3)cc2)c1 [F17, 1-(1-(2,5-Dimethylphenyl)-1H-pyrazol-5-yl)-3-(4-(1-(4-(perfluoroethoxy)phenyl)-1H-1,2,4-triazol-3-yl)phenyl)urea] | 50 to 100 | 0 to 80 | 50 to 100 | A (80-100)
Cc1cc(C)c(-n2nccc2NC(=O)Nc2ccc(-c3ncn(-c4ccc(OC(F)(F)C(F)(F)F)cc4)n3)cc2)c(C)c1 [F18, 1-(1-Mesityl-1H-pyrazol-5-yl)-3-(4-(1-(4-(perfluoroethoxy)phenyl)-1H-1,2,4-triazol-3-yl)phenyl)urea] | 50 to 100 | 0 to 80 | 50 to 100 | A (80-100)
COc1ccccc1-n1nccc1NC(=O)Nc1ccc(-c2ncn(-c3ccc(OC(F)(F)C(F)(F)F)cc3)n2)cc1 [F19, 1-(1-(2-Methoxyphenyl)-1H-pyrazol-5-yl)-3-(4-(1-(4-(perfluoroethoxy)phenyl)-1H-1,2,4-triazol-3-yl)phenyl)urea] | 50 to 100 | 0 to 80 | 50 to 100 | A (80-100)

Source: patent publication US10212936B2, “Molecules having pesticidal utility, and intermediates, compositions, and processes, related thereto” (priority 2014, dated 2019)
